Several values for one entry are separate records, joined by “and”; a condition that tells them apart may be missing. Equal entries are not always repeated. After the bases stand the sugars from the 5' end (letter, count) and the backbone: PS all phosphorothioate, else s phosphorothioate and o phosphodiester by linkage. Methylation of C is not given here. e = 2'-O-(2-methoxyethyl) (MOE); k = constrained ethyl (cEt); d = 2'-deoxy (DNA)
Molecular target: SOD1
Conditions: ASO

GGCAAAATACAGGTCAT (sugars e3 k2 d7 k2 e3, PS)
target mRNA inhibition (HepG2, 3 µM): 39%

GGCCAATGATGCAATGGTCT (sugars e5 d10 e5, PS)
target mRNA inhibition (HepG2, 5 µM): 9%

GGCCACACCATCTTTGTCAG (sugars e5 d10 e5, PS)
target mRNA inhibition (HepG2, 5 µM): 23% and 5%

GGCGATCCCAATTACAC (sugars e2 k2 d9 k2 e2, PS)
target mRNA inhibition (HepG2, 4 µM): 66%

GGGCCTCAGACTACATC (sugars e2 k2 d9 k2 e2, PS)
target mRNA inhibition (HepG2, 4 µM): 58%

GGGTTTTTATTCACAGG (sugars e3 k2 d7 k2 e3, PS)
target mRNA inhibition (HepG2, 3 µM): 17%

GGTCATTGAAACAGACA (sugars e3 k2 d7 k2 e3, PS)
target mRNA inhibition (HepG2, 3 µM): 11%

GGTCCATTACTTTCCTT (sugars e3 k2 d7 k2 e3, PS)
target mRNA inhibition (HepG2, 3 µM): 18%

GGTTTTTATTCACAGGC (sugars e2 k2 d9 k2 e2, PS)
target mRNA inhibition (HepG2, 4 µM): 45% | target mRNA inhibition (HepG2, 5 µM): 57% | target mRNA inhibition (HepG2, 12 µM): 51%

GGTTTTTATTCACAGGC (sugars e3 k2 d7 k2 e3, PS)
target mRNA inhibition (HepG2, 3 µM): 22%

GTCATTGAAACAGACAT (sugars e3 k2 d7 k2 e3, PS)
target mRNA inhibition (HepG2, 3 µM): 23%

GTCCATTACTTTCCTTC (sugars e3 k2 d7 k2 e3, PS)
target mRNA inhibition (HepG2, 3 µM): 33%

GTCCTTTAATGCTTCCCCAC (sugars e5 d10 e5, PS)
target mRNA inhibition (HepG2, 4 µM): 9%

GTCGCCCTTCAGCACGC (sugars e2 k2 d9 k2 e2, PS)
target mRNA inhibition (HepG2, 4 µM): 72%

GTCGCCCTTCAGCACGCA (sugars e5 d8 e5, linkages s1 o3 s9 o2 s2)
target mRNA inhibition (A431, 0.062 µM): 10% | target mRNA inhibition (A431, 0.185 µM): 11% | target mRNA inhibition (A431, 0.556 µM): 11% | target mRNA inhibition (A431, 1.667 µM): 3% | target mRNA inhibition (A431, 5 µM): 18% | target mRNA inhibition (A431, 15 µM): 4% | target mRNA inhibition (SH-SY5Y, 0.062 µM): 13% | target mRNA inhibition (SH-SY5Y, 0.185 µM): 4% | target mRNA inhibition (SH-SY5Y, 0.556 µM): 5% | target mRNA inhibition (SH-SY5Y, 1.667 µM): 40% | target mRNA inhibition (SH-SY5Y, 5 µM): 52% | target mRNA inhibition (SH-SY5Y, 15 µM): 77%

GTCTCCGCGACTACTTTATA (sugars e5 d10 e5, PS)
target mRNA inhibition (HepG2, 4 µM): 22%

GTCTCCTGAGAGTGAGATCA (sugars e5 d10 e5, PS)
target mRNA inhibition (HepG2, 5 µM): 23%

GTCTGGCAAAATACAGG (sugars e2 k2 d9 k2 e2, PS)
target mRNA inhibition (HepG2, 5 µM): 38%

GTGATTTAAGTCTGGCA (sugars e2 k2 d9 k2 e2, PS)
target mRNA inhibition (HepG2, 5 µM): 69%

GTGCCATACAGGGTTTT (sugars e2 k2 d8 k2 e3, PS)
target mRNA inhibition (HepG2, 5 µM): 20%

GTGCGGCCAATGATGCAATG (sugars e5 d10 e5, PS)
target mRNA inhibition (HepG2, 5 µM): 12%

GTTTAATGTTTATCAGG (sugars e2 k2 d9 k2 e2, linkages s1 o3 s9 o1 s2)
target mRNA inhibition (A431, 0.12 µM): 25% | target mRNA inhibition (A431, 0.6 µM): 69% | target mRNA inhibition (A431, 3 µM): 89% | target mRNA inhibition (A431, 15 µM): 95% | target mRNA inhibition (HepG2, 0.222 µM): 76% | target mRNA inhibition (HepG2, 0.667 µM): 90% | target mRNA inhibition (HepG2, 2 µM): 94% | target mRNA inhibition (HepG2, 6 µM): 93%

GTTTAATGTTTATCAGGA (sugars e5 d8 e5, linkages s1 o3 s9 o2 s2)
target mRNA inhibition (A431, 0.12 µM): 15% | target mRNA inhibition (A431, 0.6 µM): 51% | target mRNA inhibition (A431, 3 µM): 68% | target mRNA inhibition (A431, 15 µM): 84% | target mRNA inhibition (HepG2, 0.222 µM): 45% | target mRNA inhibition (HepG2, 0.667 µM): 73% | target mRNA inhibition (HepG2, 2 µM): 78% | target mRNA inhibition (HepG2, 6 µM): 87%

GTTTAATGTTTATCAGGATA (sugars e5 d10 e5, PS)
target mRNA inhibition (HepG2, 0.1875 µM): 15% | target mRNA inhibition (HepG2, 0.75 µM): 37% | target mRNA inhibition (HepG2, 3 µM): 70% | target mRNA inhibition (HepG2, 5 µM): 71% | target mRNA inhibition (HepG2, 12 µM): 88%

GTTTATTGGGCGATCCC (sugars e2 k2 d9 k2 e2, PS)
target mRNA inhibition (HepG2, 4 µM): 68%

GTTTTATAAAACTATAC (sugars e3 k2 d7 k2 e3, PS)
target mRNA inhibition (HepG2, 3 µM): 22%

TAAAGTGAGGACCTGCA (sugars e3 k2 d7 k2 e3, PS)
target mRNA inhibition (HepG2, 3 µM): 19%

TAATAAGTGCCATACAG (sugars e2 k2 d9 k2 e2, PS)
target mRNA inhibition (HepG2, 5 µM): 30%

TAATACCCATCTGTGAT (sugars e3 k2 d7 k2 e3, PS)
target mRNA inhibition (HepG2, 3 µM): 4%

TAATGCTTCCCCACACC (sugars e3 k2 d7 k2 e3, PS)
target mRNA inhibition (HepG2, 3 µM): 52%

TAATGTTTATCAGGAT (sugars ekddddddddekekee, linkages s1 o1 s8 o3 s2)
target mRNA inhibition (A431, 0.12 µM): 1% | target mRNA inhibition (A431, 0.6 µM): 9% | target mRNA inhibition (A431, 3 µM): 22% | target mRNA inhibition (A431, 15 µM): 46%

TAATGTTTATCAGGATA (sugars e2 k2 d9 k2 e2, PS)
target mRNA inhibition (HepG2, 0.1875 µM): 28% | target mRNA inhibition (HepG2, 0.75 µM): 66% | target mRNA inhibition (HepG2, 3 µM): 91% | target mRNA inhibition (HepG2, 4 µM): 85% and 82% | target mRNA inhibition (HepG2, 12 µM): 93% and 98%

TACACCACAAGCCAAAC (sugars e2 k2 d9 k2 e2, PS)
target mRNA inhibition (HepG2, 4 µM): 63%

TACAGCTAGCAGGATAA (sugars e3 k2 d7 k2 e3, PS)
target mRNA inhibition (HepG2, 3 µM): 40%

TACAGGTACTTTAAAGC (sugars e2 k2 d9 k2 e2, PS)
target mRNA inhibition (HepG2, 5 µM): 26%

TACAGGTCATTGAAACA (sugars e2 k2 d9 k2 e2, PS)
target mRNA inhibition (HepG2, 5 µM): 38%

TACATCCAAGGGAATGT (sugars e3 k2 d7 k2 e3, PS)
target mRNA inhibition (HepG2, 3 µM): 30%

Reference: the OligoGym collection
